14 compounds from patent US8791144B2, “Substituted N-phenyl-1-(4-Pyridinyl)-1H-pyrazol-3-amines” (Janssen Pharmaceutica NV, priority 2009, dated 2014) can be followed below.

The target in series [1] is T1, hα7-wt nAChR (Homo sapiens, UniProt P36544). The series can be described thus: Ca2+ flux imaging (FDSS): potentiation of the choline response. The format is cell-based. Conditions: for EC50: read-out: Potency (pEC50) (converted); for Emax: read-out: % Efficacy. In a few lines:
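Cells expressing human α7-wt nAChR loaded with fluo-4AM (2 μM final) up to 120 min; HBSS/10 mM HEPES/5 mM CaCl2/0.1% BSA buffer. Compound (0.01–30 μM) applied up to 10 min before 100 μM choline; peak fluorescence measured on FDSS relative to choline alone (100%). EC50 from sigmoidal curves.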

Series [2] concerns the target T1, hα7-wt nAChR. The experiment in a line: Patch-clamp current recording (whole-cell voltage clamp), potentiation of choline current and PAM type. Also noted: key: Type 0 compounds minimally enhance the effect size of the current elicited by 1 mM choline.; Type 1 compounds enhance the effect size of the current elicited by 1 mM choline but minimally alter the kinetics of the receptor.; Type 2 compounds enhance the effect size of the current elicited by 1 mM choline while reducing the rate and/or the extent of desensitization.; Type 3 compounds enhance the effect size of the current elicited by 1 mM choline. When tested at higher concentrations up to 10 μM they completely inhibit desensitization, in particular a 1 mM choline application of 250 milliseconds.; Type 4 compounds allow for an initial desensitization of the receptor followed by a re-opening of the receptor during agonist application. The class given is cell-based. Conditions: hα7-wt nAChR-expressing GH4C1 cells, 1 mM choline. In a few lines: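 GH4C1 cells stably expressing human wild-type α7 nAChR, whole-cell voltage clamp at −70 mV with rapid application (<100 ms); compound co-applied with 1 mM choline. Peak current potentiation expressed relative to choline-alone response (=100%); compounds reaching ≥200% assigned PAM type 0–4 by current kinetics and desensitization.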
Background: The patch-clamp technique gives a direct electrical read-out from membranes.

[3] abbreviates: Ca2+ assay as described in D.1, potentiation of choline response, hα7-wt nAChR.

Each structure is given as a SMILES string. Like-named read-outs stand apart in the source and are kept apart here.

T1 sequence (P36544 23-502): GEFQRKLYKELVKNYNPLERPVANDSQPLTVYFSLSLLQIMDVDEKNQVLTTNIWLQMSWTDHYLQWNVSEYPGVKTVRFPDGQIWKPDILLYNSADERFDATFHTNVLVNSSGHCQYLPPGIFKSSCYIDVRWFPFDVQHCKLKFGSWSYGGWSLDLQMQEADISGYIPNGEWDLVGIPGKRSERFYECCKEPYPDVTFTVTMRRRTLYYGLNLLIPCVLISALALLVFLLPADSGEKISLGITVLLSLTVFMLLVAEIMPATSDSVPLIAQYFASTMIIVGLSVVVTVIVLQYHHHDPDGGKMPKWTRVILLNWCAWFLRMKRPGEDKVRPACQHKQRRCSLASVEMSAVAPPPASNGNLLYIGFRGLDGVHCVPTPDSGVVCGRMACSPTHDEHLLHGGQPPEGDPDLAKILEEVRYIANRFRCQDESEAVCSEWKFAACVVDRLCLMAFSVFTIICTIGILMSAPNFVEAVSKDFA

As a reminder, the melting point is the temperature, or range, at which the solid turns liquid. Compound `COc1cc(Nc2cc(CC(=O)NC3CC3)n(-c3ccnc(C)c3)n2)cc(C(F)(F)F)c1` [Compound 46, N-cyclopropyl-3-[[3-methoxy-5-(trifluoromethyl)phenyl]amino]-1-(2-methyl-4-pyridinyl)-1H-pyrazole-5-acetamide] gave a melting point of 251.3 °C. Besides, the EC50 on hα7-wt nAChR [1] (setting [3]) was 234 nM. Also, the PAM type at hα7-wt nAChR [2] is recorded as 4.

In turn, `CCNC(=O)Cc1cc(Nc2cc(Cl)cc(OC)c2)nn1-c1ccnc(C)c1` [Compound 74, 3-[(3-chloro-5-methoxyphenyl)amino]-N-ethyl-1-(2-methyl-4-pyridinyl)-1H-pyrazole-5-acetamide] yielded a melting point of 224 °C. Also, the EC50 on hα7-wt nAChR [1] (setting [3]) is 776 nM. The PAM type at hα7-wt nAChR [2] came out at 4.

On to `CNC(=O)Cc1cc(Nc2cc(OC)cc(C(F)(F)F)c2)nn1-c1ccnc(C)c1` [Compound 43, 3-[[3-methoxy-5-(trifluoromethyl)phenyl]amino]-N-methyl-1-(2-methyl-4-pyridinyl)-1H-pyrazole-5-acetamide], for which the melting point is 237.9 °C. The EC50 on hα7-wt nAChR [1] (setting [3]) was 562 nM. Further, the PAM type on hα7-wt nAChR [2] is recorded as 4.

With `COc1cc(Cl)cc(Nc2cc(CC(=O)NCC3CC3)n(-c3ccnc(C)c3)n2)c1` [Compound 81, 3-[(3-chloro-5-methoxyphenyl)amino]-N-(cyclopropylmethyl)-1-(2-methyl-4-pyridinyl)-1H-pyrazole-5-acetamide], the melting point stood at 248.7 °C. Besides, the EC50 on hα7-wt nAChR [1] (setting [3]) was 148 nM. Besides, the PAM type on hα7-wt nAChR [2] turned out to be 0.

As for `CC[C@@H](O)Cc1cc(Nc2ccc(F)c(F)c2)nn1-c1ccnc(C)c1` [Compound 10, (alphaR)-3-[(3,4-difluorophenyl)amino]-alpha-ethyl-1-(2-methyl-4-pyridinyl)-1H-pyrazole-5-ethanol], the melting point was determined as 164.7 °C. At hα7-wt nAChR [1] (setting [3]), the EC50 was 832 nM. Moreover, the PAM type at hα7-wt nAChR [2] worked out at 2.

The compound `Cc1cc(-n2nc(Nc3cccc(OC(F)(F)F)c3)cc2CC(=O)NCC2CC2)ccn1` [Compound 119, N-(cyclopropylmethyl)-1-(2-methyl-4-pyridinyl)-3-[[3-(trifluoromethoxy)phenyl]amino]-1H-pyrazole-5-acetamide] returned a melting point of 191.7 °C. Further, on hα7-wt nAChR [1] (setting [3]), the EC50 was 324 nM. In addition, the PAM type at hα7-wt nAChR [2] is given as 2.

As for `Cc1cc(-n2nc(Nc3ccc4c(c3)OC(F)(F)O4)cc2CC(=O)NC2CC2)ccn1` [Compound 100, N-cyclopropyl-3-[(2,2-difluoro-1,3-benzodioxol-5-yl)amino]-1-(2-methyl-4-pyridinyl)-1H-pyrazole-5-acetamide], the melting point was 248.9 °C. Moreover, on hα7-wt nAChR [1] (setting [3]), the EC50 is 1260 nM. Moreover, the PAM type at hα7-wt nAChR [2] amounted to 2.

In the case of `CCNC(=O)Cc1cc(Nc2cccc(Cl)c2F)nn1-c1ccnc(C)c1` [Compound 73, 3-[(3-chloro-2-fluorophenyl)amino]-N-ethyl-1-(2-methyl-4-pyridinyl)-1H-pyrazole-5-acetamide], the melting point is 205.1 °C. In addition, the EC50 at hα7-wt nAChR [1] (setting [3]) is 1260 nM. In addition, the PAM type on hα7-wt nAChR [2] was 3.

Regarding `CNC(=O)Cc1cc(Nc2cccc(OC(F)(F)F)c2)nn1-c1ccnc(C)c1` [Compound 111, N-methyl-1-(2-methyl-4-pyridinyl)-3-[[3-(trifluoromethoxy)phenyl]amino]-1H-pyrazole-5-acetamide], the melting point worked out at 231.5 °C. Further, at hα7-wt nAChR [1] (setting [3]), the Emax came out at 822% and the EC50 was 2290 nM. For the same compound, the PAM type at hα7-wt nAChR [2] turned out to be 2.

As for `CC[C@H](O)Cc1cc(Nc2ccc3c(c2)OC(F)(F)O3)nn1-c1ccnc(C)c1` [Compound 93, (alphaS)-3-[(2,2-difluoro-1,3-benzodioxol-5-yl)amino]-alpha-ethyl-1-(2-methyl-4-pyridinyl)-1H-pyrazole-5-ethanol], the melting point was 138.3 °C. In addition, at hα7-wt nAChR [1] (setting [3]), the EC50 is 1700 nM. On hα7-wt nAChR [2], the PAM type is given as 2.

In the case of `Cc1cc(-n2nc(Nc3cccc(OC(F)(F)F)c3)cc2CC(=O)NCC2CC2)cc(C)n1` [Compound 120, N-(cyclopropylmethyl)-1-(2,6-dimethyl-4-pyridinyl)-3-[[3-(trifluoromethoxy)phenyl]amino]-1H-pyrazole-5-acetamide], the melting point came out at 199.4 °C. In addition, the EC50 at hα7-wt nAChR [1] (setting [3]) was 141 nM. Further, the PAM type on hα7-wt nAChR [2] is 2.

In turn, `CC[C@H](O)Cc1cc(Nc2ccc(F)c(F)c2F)nn1-c1ccnc(C)c1` [Compound 18, (alphaS)-alpha-ethyl-1-(2-methyl-4-pyridinyl)-3-[(2,3,4-trifluorophenyl)amino]-1H-pyrazole-5-ethanol] yielded a melting point of 149.1 °C. Also, the EC50 on hα7-wt nAChR [1] (setting [3]) is 2400 nM. In addition, at hα7-wt nAChR [2], the PAM type stood at 1.

Take `COc1cc(Nc2cc(CCC(=O)N(C)C)n(-c3ccnc(C)c3)n2)cc(C(F)(F)F)c1` [Compound 9, 3-[[3-methoxy-5-(trifluoromethyl)phenyl]amino]-N,N-dimethyl-1-(2-methyl-4-pyridinyl)-1H-pyrazole-5-propanamide]: the melting point came to 146.4 °C. The EC50 on hα7-wt nAChR [1] (setting [3]) is 170 nM. For the same compound, the PAM type on hα7-wt nAChR [2] came to 4.

`COCc1cc(Nc2ccc(F)c(F)c2)nn1-c1ccnc(C)c1` [Compound 22, N-(3,4-difluorophenyl)-5-(methoxymethyl)-1-(2-methyl-4-pyridinyl)-1H-pyrazol-3-amine] returned a melting point of 184.2 °C. For the same compound, the EC50 on hα7-wt nAChR [1] (setting [3]) was 1910 nM. The Emax on hα7-wt nAChR [1] was 963%. Further, the PAM type at hα7-wt nAChR [2] is reported as 0.
